In article PMC8813803 (Clinical Pharmacokinetics, 2021):

Key:
[1] = system: liver uptake transporters; assay: Liver uptake transporter substrate status; assay type: in vitro ADME
[2] = human, cited from earlier work
[3] = in words; cited from earlier work
[4] = in words; cited from earlier work; remark: listed apart in the source
[5] = Clinical ADME study NCT03315559; assay type: in vivo; details: human; set from Fg 0.83 of clinical study 206764
[6] = in words; cited from earlier work; remark: listed apart in the source

Substrate of liver uptake transporters [1]: not a substrate
Intestinal FPE (first-pass extraction) [5]: 17%
SMILES: CC(C)N1CCN(Cc2cnc(-c3cc(-c4cccc5[nH]ccc45)cc4[nH]ncc34)o2)CC1 [nemiralisib, Nemiralisib]
Fg (fraction escaping gut wall metabolism) ([2]; clinical study 206764 (NCT03315559)): 0.83
Volume of distribution at steady state ([2]; intravenous dosing): approximately 10 L/kg
tmax (time of maximum plasma concentration) ([2]; oral dose): 6 h
Oral bioavailability [2]: 35%
Solubility [3]: reasonable
Rat lung tissue binding [4]: high
Permeability [6]: high
